Data set [1] in a line: Antigenicity by sandwich-type capture ELISA after SCCNC treatment. The data set is classed as binding. As for the experimental part: Experiments were performed to encapsulate tetanus toxoid (TT) and diphtheria toxoid (DT) vaccine antigens in 50:50 PLGA polymer microspheres formed by SCCNC carbon dioxide and propane. In these tests, DT and TT were each separately treated with supercritical carbon dioxide with 10% (v/v) cosolvent ethanol, and near-critical propane in the presence of PLGA. The pressure and temperature were around 3,000 psig and 30-35° C. respectively. The protein and antigenicity activities were performed by micro BCA assay and a sandwich-type capture ELISA [Gupta, R. K., Siber, G. R., Alonso, M. J. and Langer, R., in Modern Approaches To New Vaccines Including Prevention of AIDS. Ed. by Ginsberg, H. S., Brown, F., Chanock, R. M. and Lerner, R. A. Cold Spring Harbor Laboratory, Press, 1993] assay.

Data set [2] relates to chronic diabetic BB/W or male rats. The data set can be described thus: In vivo release of insulin: glucose concentration in diabetic rats. Conditions: for Effect on glucose levels (in words): bled 0.5 to 16 hrs after treatment. As for the experimental part: A preliminary study with SCCNC polymer nanoencapsulated insulin was conducted in diabetic rats. Three groups of four chronic diabetic BB/W or male rats were used to evaluate efficacy on nanoencapsulated insulin (MS-29). One group [A] was given 2 ml of the test formulation (MS-29) using the standard gavage method. The second group [B] received oral non-encapsulated insulin, administered by gavage at the concentration based on the animals' day of diabetes onset. A third group [C] received injected insulin (PZI, Eli Lilly) therapy at the dose consistent with their day of onset of diabetes. The animals were bled prior to treatment and at 0.5, 1, 2, 4, 8, and 16 hrs after treatment.

For data set [3] the following is noted: aqueous protein; cited from earlier work.
Where [4] appears, read: treated with SCCNC carbon dioxide/ethanol mixtures.

The values that follow come from patent US8440614B2, “Polymer microspheres/nanospheres and encapsulating therapeutic proteins therein” (priority 2000, dated 2013).

In the case of 4: Tetanus toxoid, Control [Sample 4], the “ELISA (Lf/mL), antigenicity” value in data set [1] (toxoid in PLGA microspheres formed by different SCCNC, around 3,000 psig, 30-35° C.) was 9.0 Lf/mL.
As for “Injected Insulin: injected insulin (PZI, Eli Lilly), positive control”, the “Percent Change in Glucose Concentration” value in data set [2] (0.5 hr post-treatment) is given as −47.4%; in data set [2] (1 hr post-treatment), −62.7%; in data set [2] (2 hr post-treatment), −71.8%; in data set [2] (4 hr post-treatment), −37.9%; in data set [2] (8 hr post-treatment) it was −48.5%; in data set [2] (16 hr post-treatment), −37.6%. In data set [2], the “Effect on glucose levels (in words)” value is recorded as “statistical decrease in glucose levels at all times measured post treatment”.
“Oral Insulin: oral non-encapsulated insulin, administered by gavage”: the “Percent Change in Glucose Concentration” value in data set [2] (0.5 hr post-treatment) is listed as “+2.9%”; in data set [2] (1 hr post-treatment), −4.6%; in data set [2] (2 hr post-treatment), −24.4%; in data set [2] (4 hr post-treatment) it was “+2.8%”; in data set [2] (8 hr post-treatment) it was “+7.5%”; in data set [2] (16 hr post-treatment), “+47.3%”. Further, the “Effect on glucose levels (in words)” value in data set [2] is reported as “only showed a statistical decrease in the level of glucose at one time point, 2 hours”.
For the substance diphtheria toxoid, the “Antigenicity after treatment (in words)” value in data set [1] (setting [4]) is recorded as “lost most of their antigenicity”; in data set [1] (treated with near-critical propane), “did little damage”. In data set [3], the “pH levels at which the toxoid will denature” value was “below 5.0”.
“tetanus toxoid: tetanus toxoid (TT) vaccine antigen”: the “Antigenicity after treatment (in words)” value in data set [1] (setting [4]) is reported as “lost most of their antigenicity”. Besides, the “pH levels at which the toxoid will denature” value in data set [3] is on record as “below 5.0”.
